Laboratory results: patent US20200046658A1, “PHARMACEUTICAL COMPOSITION FOR INDUCING EXERCISE MIMETIC EFFECT” (CELLVERTICS CO., LTD., priority 2015, published 2020)
Structures can show the parent of a compound that is named as a salt. Marks after values point to notes of the source that are not given here.

Legend:
[1] = tested on: spontaneously hypertensive rat (SHR); experiment: ATP level in tissues of SHR by ELISA; assay type: in vivo; details: versus control group SHRs, FIG. 5
Procedure: 0.02 g of liver tissue was homogenized in 500 μL of PBS. The homogenate was centrifuged at 1500×g (or 5000 rpm) for 15 minutes and the supernatant was subjected to measurement. After pouring 100 μL of a reference material or sample to an adequate well of an antibody-precoated microtiter plate, 10 μL of the residual solution was added to the sample. After adding 50 μL of a conjugate to each well and mixing, the plate was covered with a lid and incubated at 37° C. for 1 hour. After adding 50 μL of substrate A or B to each well, incubation was conducted at 37° C. for 15 minutes. After adding a stop solution to each well, optical density was measured at 450 nm using a microplate reader.
The level of ATP in the heart, skeletal muscle and liver was measured by ELISA for the 4-week-old basal rat (I), midodrine-administered rat (II), atenolol-administered rat (III) and 8-week-old unadministered control group rat (IV).

[2] = Body weight, cardiac weight and abdominal fat of SHR; assay type: in vivo, rat; details: 8 weeks old, drug in drinking water for 4 weeks (midodrine 0.2 mg/kg/day, atenolol 1 mg/kg/day), mean±SD
Procedure: (§1) The animals of the group I were anesthetized at 4 weeks of age while the rats of other groups were anesthetized at 8 weeks of age after being treated for 4 weeks. […] The recovered organs were kept in a refrigerator at −80° C. or in 10% formalin for fixation.
Body weight and abdominal fat were measured and compared for the midodrine-administered rat (II), atenolol-administered rat (III) and 8-week-old unadministered hypertension control group rat (IV).

[3] = tested on: aorta and cardiac muscle tissue; experiment: mRNA expression of AT1R, eNOS, SOD, gp91-phox, TNFα in aorta and cardiac muscle of SHR; assay type: in vivo, rat
Procedure: as §1
Full-length RNA was extracted using the TriZol reagent according to the manufacturer's instructions. Complementary DNA was synthesized from the full-length RNA using the Power cDNA Synthesis kit and polymerase chain reaction was conducted for angiotensin II type I receptor (AT1R), endothelial nitric oxide synthase (eNOS), superoxide dismutase (SOD), gp91-phox (NADPH), tumor necrosis factor-alpha (TNF-α) and GAPDH using the PCR Premix kit.
The mRNA expression level of the genes related with vasoconstriction, nitric oxide production, oxidative stress and inflammation in the aorta and cardiac muscle tissue was investigated by […] for the 4-week-old basal rat (I), midodrine-administered rat (II), atenolol-administered rat (III) and 8-week-old unadministered control group rat (IV).

[4] = tested on: spontaneously hypertensive rat (SHR); experiment: Serum inflammatory markers, reactive oxygen species and adiponectin in SHR; assay type: in vivo; details: 8 weeks old, drug for 4 weeks, mean±SD; for ROS: blood
Procedure: as §1
The concentration of total cholesterol, HDL cholesterol, LDL cholesterol and triglyceride was measured by enzymatic colorimetry (Roche Diagnostics GmbH; Mannheim, Germany). Also, serum assays for inflammatory markers were conducted using a […] cytokine Milliplex panel (Millipore Corporation, Billerica, Mass., USA) as recommended for cytokines (interleukin (IL)-1α, IL-1β, IL-6, IL-4, IL-10 and TNF-α). Acquisition was performed on a Luminex 100 platform and data analysis was carried out using the Multiplex analyzer. Reactive oxygen species and adiponectin were measured using the ELISA kit (MBS815494, Mybiosource). The measured blood adiponectin level was calibrated for the visceral fat weight (g).

[5] = tested on: spontaneously hypertensive rat (SHR); experiment: Echocardiographic examination of spontaneously hypertensive rats; assay type: in vivo
Description: Spontaneously hypertensive rat (SHR) is an animal model in which hereditary hypertension is expressed. It is known that the hypertension which is the most similar to human primary hypertension is expressed. In SHR, blood pressure begins to increase around 4-6 weeks of age and hypertension is developed seriously at 8-12 weeks. SHR is widely used in studies as an animal mode of primary hypertension, especially hypertension with cardiac lesions, because it is frequently accompanied damage to the hypertensive target organs, such as cardiac hypertrophy, heart failure, renal disorder, etc.
3-week-old spontaneously hypertensive rats (SHRs) were kept under a standardized condition (21° C., 41-62% humidity) with periodic light/dark (10/14 hour) cycles and were freely allowed to access water and laboratory feed. All the animal experiments were approved by the Korea University Institutional Animal Care and Use Committee (KUIACUC-2012-100) and were in accordance with the Guideline for the Care and Use of Laboratory Animals.
After anesthetization by intramuscular injection of Zoletil (8 mg/kg) and xylazine (2 mg/kg), the rats were laid on their left sides and M-mode echo images were obtained. The examination was conducted using Vivid 7 (GE Medical Systems, Milwaukee, Wis., USA) equipped with a 12-MHz transducer. After acquiring optimized 2-dimensional short-axis images for the left ventricle at the papillary muscle level, M-mode tracing and echocardiographic images were recorded at a speed of 100 mm/s.

[6] = tested on: mouse skeletal muscle cells (C2C12); experiment: Western blot of p-AMPK, PPAR-δ and PGC-1α in differentiating C2C12 cells; assay type: cell-based; details: versus untreated control
Procedure: C2C12 cells (mouse skeletal cell line) were seeded onto a 6-well plate in a CO2 incubator at 37° C. and cultured in a DMEM medium containing 10% FBS and 1% antibiotics to about 80% confluency. After replacing the medium with one containing 1% FBS, differentiation was conducted for 3 days. Then, after replacing the medium with one containing 1% FBS and then treating with a drug, experiment was conducted 24 hours later.
The protein content of the extract was measured by the Bradford's method. The extracted proteins (20-30 μg) were loaded on a 10% SDS-PAGE gel. Western blot assay was conducted using primary antibodies for AMPKα, phosphorylated AMPKα, PPARδ and PGC-1α. Images were obtained manually using the Kodak GBX developer and a fixative reagent.
Specifically, after treating differentiating C2C12 cells with the compounds at different concentrations (10 μM, 30 μM, 50 μM), the expression of activated (phosphorylated) AMPK (p-AMPK), PPAR-δ and PGC-1α was investigated by western blot.

[7] = SHR, 8 weeks old, drug in drinking water for 4 weeks (midodrine 0.2 mg/kg/day, atenolol 1 mg/kg/day), mean±SD
[8] = C2C12, over 10 μM, 30 μM, 50 μM

For `CC(C)NCC(O)COc1ccc(CC(N)=O)cc1` (stereo not drawn) [Atenolol], which “ATP level in heart tissue” value [1] is on record?
The value was “higher”.

What about the Body weight [2] of the same compound?
The Body weight was 296.46 ± 16.73^b g.

What about the Cardiac weight [2] of the same compound?
Its Cardiac weight is 1.47 ± 0.15^a g.

What about the Body weight ([2]; listed as atenolol) of the same compound?
The Body weight was “highest”.

What about the “TNFα expression in the aorta” value ([3]; among groups I-IV, FIG. 3A) of the same compound?
The value was “moderate”.

And the “expression of angiotensin II AT1R mRNA in the cardiac muscle” value ([3]; among groups I-IV, FIG. 3B)?
The value was “moderate”.

And the “expression of angiotensin II AT1R mRNA in the aorta” value ([3]; versus control groups I and IV, FIG. 3A)?
The value was “lower”.

What about the Adiponectin ([4]; blood level calibrated for the visceral fat weight (g)) of the same compound?
The Adiponectin was 6136.5 ± 574.7^bc ng/ml/g.

And the ROS [4]?
The ROS was 223.1 ± 45.4^a ng/ml.

And the ROS ([4]; listed as atenolol)?
Its ROS is “lower”.

And the IL-1α ([4]; serum)?
Its IL-1α is 5.51 ± 2.64^c μg/ml.

What about the IL-1β ([4]; serum) of the same compound?
The IL-1β was 2.02 ± 1.53^a μg/ml.

And the IL-4 ([4]; serum)?
The IL-4 was 2.94 ± 0.90^b μg/ml.

And the IL-6 ([4]; serum)?
The IL-6 was 5.62 ± 1.42^a μg/ml.

And the IL-10 ([4]; serum)?
The IL-10 was 15.33 ± 2.79^b μg/ml.

What about the TNF-α ([4]; serum) of the same compound?
The TNF-α was 8.35 ± 1.36^b μg/ml.

And the IL-1α ([4]; serum, listed as atenolol)?
Its IL-1α is “significantly increased”.

And the IL-4 ([4]; serum, listed as atenolol)?
Its IL-4 is “slightly higher”.

What about the IL-10 ([4]; serum, listed as atenolol) of the same compound?
The IL-10 was “slightly higher”.

And the TNF-α ([4]; serum, listed as atenolol)?
The TNF-α was “significantly increased”.

What about the left ventricular performance ([5]; 8-week-old SHR, versus unadministered control (group IV)) of the same compound?
The left ventricular performance was “higher”.

And the “Diastolic left ventricular diaphragm” value [5, 7]?
The value was 1.50 ± 0.13^a mm.

What about the “Diastolic left ventricular inner size” value [5, 7] of the same compound?
The value was 6.33 ± 0.35^a mm.

And the “Diastolic left ventricular wall” value [5, 7]?
Its value is 1.67 ± 0.16 mm.

What about the “Left ventricular ejection fraction” value [5, 7] of the same compound?
The value was 82.00 ± 5.31^a %.

And the “Left ventricular fractional shortening” value [5, 7]?
The value was 45.70 ± 5.82^a %.

What about the “Left ventricular mass according to ASE” value [5, 7] of the same compound?
The value was 1.10 ± 0.07^a g.

And the “Systolic left ventricular inner size” value [5, 7]?
The value was 3.43 ± 0.28^a mm.

For `COc1ccc(OC)c(C(O)CNC(=O)C(N)Cc2ccccc2)c1` (stereo not drawn) [Compound 5, 2-amino-N-(2-(2,5-dimethoxyphenyl)-2-hydroxyethyl)-3-phenylpropanamide], which “expression of PPAR-δ” value ([6]; C2C12, 30 μM) is on record?
Its value is “significantly increased”.

What about the “expression of p-AMPK” value ([6]; C2C12, 30 μM) of the same compound?
Its value is “significantly increased”.

With `COc1ccc(OC)c(C(O)CNC(=O)C(C)N)c1` (stereo not drawn) [Compound 7, 2-amino-N-(2-(2,5-dimethoxyphenyl)-2-hydroxyethyl)propanamide] as the compound, how does the “expression of p-AMPK” value ([6]; C2C12, 10 μM) read?
The value was “significant increase”.

What about the “expression of PPAR-δ” value ([6]; C2C12, 30 μM) of the same compound?
The value was “significant increase”.

What about the “expression of p-AMPK” value ([6]; C2C12, 50 μM) of the same compound?
Its value is “significant increase”.

And the “expression of PPAR-δ” value [6, 8]?
Its value is “concentration-dependent increase”.

What about the “expression of p-AMPK” value [6, 8] of the same compound?
Its value is “concentration-dependent increase”.

For `COc1cc(OC)cc(C(O)CNC(=O)CN)c1` (stereo not drawn) [Compound 8, 2-amino-N-(2-(3,5-dimethoxyphenyl)-2-hydroxyethyl)acetamide hydrochloride], which “expression of PGC-1α” value ([6]; C2C12, 50 μM) is on record?
The value was “significantly increased”.

And the “expression of p-AMPK” value ([6]; C2C12, 50 μM)?
Its value is “significantly increased”.

What about the “expression of PGC-1α” value [6, 8] of the same compound?
The value was “overall increase”.

What about the “expression of PPAR-δ” value [6, 8] of the same compound?
Its value is “overall increase”.

And the “expression of p-AMPK” value [6, 8]?
Its value is “overall increase”.

For `CCc1ccc(OC)c(C(O)CNC(=O)CN)c1` (stereo not drawn) [Compound 9, 2-amino-N-(2-(5-ethyl-2-methoxyphenyl)-2-hydroxyethyl)acetamide hydrochloride], which “expression of PGC-1α” value ([6]; C2C12, 30 μM) is on record?
The value was “significantly increased”.

What about the “expression of p-AMPK” value ([6]; C2C12, 30 μM) of the same compound?
The value was “significantly increased”.

And the “expression of PGC-1α” value ([6]; C2C12, 50 μM)?
Its value is “significantly increased”.

What about the “expression of p-AMPK” value ([6]; C2C12, 50 μM) of the same compound?
The value was “significantly increased”.

And the “expression of PGC-1α” value [6, 8]?
Its value is “overall increase”.

And the “expression of PPAR-δ” value [6, 8]?
Its value is “overall increase”.

And the “expression of p-AMPK” value [6, 8]?
The value was “overall increase”.

With `NCC(=O)NCC(O)c1ccccc1` (stereo not drawn) [Compound 10, 2-amino-N-(2-hydroxy-2-phenylethyl)acetamide hydrochloride] as the compound, how does the “expression of PPAR-δ” value ([6]; C2C12, 10 μM) read?
The value was “significantly increased”.

And the “expression of p-AMPK” value ([6]; C2C12, 30 μM)?
Its value is “significantly increased”.

And the “expression of PPAR-δ” value ([6]; C2C12, 50 μM)?
Its value is “significantly increased”.

What about the “expression of p-AMPK” value ([6]; C2C12, 50 μM) of the same compound?
Its value is “significantly increased”.
